The values that follow come from US10294228B2, “Breathing control modulating compounds, and methods of making and using same” (NEURAD LTD., priority 2015, dated 2019).

The test system of data set [1] is morphine-tolerant rats (CSA model). As to the kind of experiment: Apnea hypopnea index and ventilation during sleep in rats receiving chronic morphine (CSA model). The class given is in vivo, rat. The note with it: 10 mg/kg PO, FIG. 15. As to the method:
Central sleep apnea (CSA) and hypopnea are especially prevalent in people on chronic opioid therapy. Accordingly, a novel rodent model of chronic opioid-induced sleep disordered breathing that mimics many features of the condition in people was developed.
Morphine was administered chronically to rats in their drinking water at a dose and duration that elicited morphine tolerance. Morphine sulfate was added to the drinking water of individually housed rats beginning at 0.1 mg/ml morphine and increasing the concentration in increments so that a final concentration of 0.6 mg/ml was achieved within 2 weeks of beginning morphine exposure. During the first three weeks after starting morphine administration, rats were acclimated to whole body plethysmography chambers.
Respiratory rate (fR), tidal volume (VT), minute volume (VE), and CSA and hypopnea frequency and length (i.e., duration of each apnea) were measured continuously while animals were unrestrained in whole-body plethysmography chambers. Animals breathed room air for the duration of the study, except where indicated for the hyperoxia validation study. […]
A respiratory waveform was generated from the expansion and contraction of the air that was exchanged between the animal and the chamber. […] The airflow signal was amplified and continuously recorded using PowerLab and LabChart 7.0. […]

For another data set, the system named is rats. As to the kind of experiment: Sleep quantity, architecture and quality by EEG/EMG telemetry. The note with it: 10 mg/kg PO. The class given is in vivo, rat. How it is done: All surgical and plethysmographic studies were approved by the IACUC committee of Galleon Pharmaceuticals. The study used rats implanted with dual biopotential electrodes that permitted continuous and simultaneous telemetric recordings of electroencephalogram (EEG) and electromyogram (EMG) waveforms. Three treatment conditions were assessed for their effects on sleep quantity, architecture, and quality: baseline (drug-naïve), (31a) (10 mg/kg PO) and vehicle (equal volume PO). Baseline and (31a) treatment study days were randomized. However, vehicle alone was assessed after each rat had completed drug nave and compound (31a) evaluations.
Standard aseptic technique was used for all surgical procedures. […]
Rats with implanted telemeters were allowed to remain in their home cages during data collection. […] EEG and EMG waveforms were recorded between 8 am and 3 pm each study day. […] For each rat, the three telemetry signals (EEG, EMG, and temperature) were routed from the receiver to the PowerLab and recorded using LabChart. […]
The principal aspects of these analyses were to quantify the magnitude of the EMG signal (i.e., the animals activity level) and the relative densities of EEG delta waves (0.5 to 4 Hz; predominant in NREM sleep) and EEG theta waves (6 to 10 Hz; predominant in REM sleep) during each 4-second epoch. […]

“Also recorded” adds a separate entry of the source. Counter-ions that a name gives are not always drawn.

On to `CCCNc1nc(NC)nc2c(NCC(C)(C)O)nc(NC)nc12` [Compound 31a, 1-(2,6-Bis-methylamino-8-propylamino-pyrimido[5,4-d]pyrimidin-4-ylamino)-2-methyl-propan-2-ol Hydrochloride], for which, in data set [1], the apnea-hypopnea index result was “reduces” and the minute volume result was “without significantly increasing”. Moreover, the “effects on sleep quantity, architecture, or quality” value in the data set on rats is listed as “not associated with any statistically significant effects”. Further, the “effects on sleep architecture” value with rats (compared to baseline (drug-naive), FIG. 24, Hydrochloride, 10 mg/kg) was “No significant differences; also recorded: does not produce effects”.
